Measured values from ChEMBL document CHEMBL1126359, “Synthesis and pharmacological activity of rationally designed inhibitors of the leukotriene A4 hydrolase enzyme” (Bioorg Med Chem Lett, 1992).

What was measured:
HL-60 = assay: Inhibitory activity against calcium ionophore induced Leukotriene B4 biosynthesis by the promyelocytic leukemia cell line HL-60 at concentrations of 10e-6 M; A - good inhibitory activity; format: functional, cell-based; conditions: Homo sapiens
[1] = target: T1, Leukotriene A-4 hydrolase (Homo sapiens) (UniProt P09960); assay: Inhibition of Leukotriene B4 by inhibiting the conversion of Leukotriene A4 by a purified Leukotriene A4 hydrolase; IE - ineffective
T1 sequence (whole entry): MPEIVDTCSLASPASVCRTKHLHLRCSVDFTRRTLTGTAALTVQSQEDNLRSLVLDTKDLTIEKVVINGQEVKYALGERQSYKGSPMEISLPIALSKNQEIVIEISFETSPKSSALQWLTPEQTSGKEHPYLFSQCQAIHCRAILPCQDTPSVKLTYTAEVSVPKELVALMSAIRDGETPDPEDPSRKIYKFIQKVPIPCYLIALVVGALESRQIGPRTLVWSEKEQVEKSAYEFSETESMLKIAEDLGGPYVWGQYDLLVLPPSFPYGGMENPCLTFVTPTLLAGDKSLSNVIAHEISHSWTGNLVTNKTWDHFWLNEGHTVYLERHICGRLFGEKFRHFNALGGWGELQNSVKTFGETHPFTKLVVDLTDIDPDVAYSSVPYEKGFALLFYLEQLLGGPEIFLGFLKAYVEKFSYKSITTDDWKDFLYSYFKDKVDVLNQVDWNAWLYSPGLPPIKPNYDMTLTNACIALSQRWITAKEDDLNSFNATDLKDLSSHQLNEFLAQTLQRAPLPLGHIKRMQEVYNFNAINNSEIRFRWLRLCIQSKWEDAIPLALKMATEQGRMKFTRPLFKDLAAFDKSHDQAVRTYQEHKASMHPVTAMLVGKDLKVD

Activity [1]	SMILES	Activity (HL-60)
Ineffective	CCCCCCCCCC/C=C/C1=C[C@@H]2CC[C@@]1(CCCC(=O)O)O2	A
Ineffective	CCCCCCCC/C=C\C=C\C1=C[C@@H]2CC[C@@]1(CCCC(=O)O)O2	A
